Legend:
[1] = tested on: Fibroblasts (primary culture from healthy human dental pulp); details: fibroblasts, 72 h treatment, MTT
Protocol: MCF-7 cell line and primary culture of connective tissue cells were provided by the Laboratory of Morphology, University of Brasília (Brasília, BR). MDA-MB-231 cells were purchased from Rio de Janeiro Cell Bank (RJCB - Rio de Janeiro, BR). Cell line characterization and authentication was conducted by RJCB using short tandem repeat profiling. Primary culture cells were taken from healthy human dental pulp predominantly consisting of fibroblasts and were used as normal control cells. MCF-7 cells and fibroblasts were grown in complete DMEM and maintained at 37°C with 5% CO2. MDA-MB-231 cells were grown in Leibovitz L15 medium at 37°C without CO2. Culture media were supplemented with 10% fetal bovine serum and 25 μg/mL of gentamicin.
Cytotoxicity was determined using 3-(4,5-dimethylthiazol-2-yl)-2,5-diphenylterazolium bromide (MTT) according to the manufacturer’s instructions. Absorbance readings were measured by a spectrophotometer. Cell viability was normalized to control (vehicle only).

HUVEC cells = experiment: HUVEC tube formation assay; assay type: cell-based, human; details: 11 h; 30 μM, IC50 or 300 μM, mainly 300 μM
Protocol: The anti-angiogenic potential of DHPMs was tested using an in vitro Angiogenesis Assay Kit according to the manufacturer’s instructions. […] These plates were incubated for 11 hours at 37°C, in 5% CO2. Wells were subsequently photographed using an inverted light microscope at 20x magnification and tube formation analyzed. Seven fields per group of 3 independent experiments were quantified by pattern recognition according to manufacturer’s instructions.

MDA-MB-231 cells = experiment: CFSE proliferation assay, MDA-MB-231; assay type: cell-based, human; details: 72 h, IC50 concentration of each compound
Protocol: (§1) For proliferation assays, cells were treated with IC50 concentrations of each compound. Adherent and floating cells were harvested at the same tube and pelleted by centrifugation at 300 g for 5 minutes and stained. Data acquisition of these two fractions put together was performed on a FACSCalibur flow cytometer using CellQuest software and analysed using the FloJo Software. […] After adhesion, cells were treated with DHPMs or maintained in culture medium only (control) for 72 h. The percentage of proliferative cells was calculated based on the CFSE fluorescence profile analysis of the tested samples compared to that of the fixed undivided control cells (treated with 10 μM of colchicine) using the FlowJo software.

MCF-7 cells [2] = experiment: Cell cycle analysis (PI), MCF-7; assay type: cell-based, human; details: 4m 1 mM, 4bt 0.8 mM, 4p 0.4 mM, 4bc 1.0 mM, 4x 0.8 mM
Protocol: For proliferation assays, cells were treated with IC50 concentrations of each compound. Adherent and floating cells were harvested at the same tube and pelleted by centrifugation at 300 g for 5 minutes and stained. Data acquisition of these two fractions put together was performed on a FACSCalibur flow cytometer using CellQuest software and analysed using the FloJo Software. Control and DHPM-treated cells were harvested at 24, 48 and 72 h, resuspended in ice-cold PBS and fixed with 70% ethanol on ice. Cells were then washed with PBS, harvested and incubated with propidium iodide solution (0.1% Triton X-100, 10 μg/mL propidium iodide, 100 μg/mL DNase free RNase) for 10 min at 37°C. For analysis of cell populations in each cell cycle phase, the sub-G1 picks were excluded and the plots were generated by cell cycle platform data analysis by the FlowJo Software.

MCF-7 cells [3] = experiment: DAPI staining and transmission electron microscopy analysis; assay type: cell-based, human; details: MCF-7, 4p 0.4 mM, 24 h (DAPI) or 48 h (TEM)
Protocol: Aliquots of 8 × 10^5 MCF-7 cells were seeded in 12-well plates and ultra-structural analysis performed on controls or after 48 h of treatment with 4p (0.4 mM). Cells were washed twice with PBS and fixed overnight with glutaraldehyde (2.5%) at 4°C. Cells were subsequently washed with 0.1 M sodium cacodylate buffer (pH 7.2) and post-fixed in 1% osmium tetroxide and 0.8% potassium ferricyanide (10 mM CaCl2 in 0.2 M sodium cacodylate buffer). Samples were washed twice with 0.1 M sodium cacodylate buffer (pH 7.2) and in-block staining was performed for 16 h with 0.5% uranyl acetate at 4°C. Cells were dehydrated in a graded acetone series (50-100%) and embedded in Spurr resin.
Cells were analyzed under a laser scanning confocal microscope. B, MCF-7 cells control or treated with 4p (0.4 mM) for 24 h had their nucleus stained with DAPI (left panels) or were processed and analyzed by Transmission Electron Microscopy after exposure to 4p (0.4 mM) for 48 h (right panels).

MCF-7 cells [4] = experiment: CFSE proliferation assay, MCF-7; assay type: cell-based, human; details: 72 h, IC50 concentration of each compound
Protocol: as §1

MCF-7 cells [5] = experiment: CD44+/CD24- expression analysis, MCF-7; assay type: cell-based, human; details: 24 h; for CD44-/CD24- subpopulation, MCF-7 (mean ± SEM): 4m 1.0 mM, 4bt 0.8 mM, 4p 0.4 mM, 4bc 1.0 mM, 4x 0.8 mM, monastrol 1.0 mM; for CD44+/CD24+ subpopulation, MCF-7 (mean ± SEM) / CD44-/CD24+ subpopulation, MCF-7 (mean ± SEM) / CD44+/CD24- subpopulation, MCF-7 (mean ± SEM): concentrations as E28; for CD44+/CD24- subpopulation, MCF-7 (mean ± SEM): control 0.38 ± 0.18
Protocol: For proliferation assays, cells were treated with IC50 concentrations of each compound. Adherent and floating cells were harvested at the same tube and pelleted by centrifugation at 300 g for 5 minutes and stained. Data acquisition of these two fractions put together was performed on a FACSCalibur flow cytometer using CellQuest software and analysed using the FloJo Software. Expression level of CD44 and CD24 in treated and control MCF-7 or MDA-MB-231 cells was measured after 24 h of treatment.

CCOC(=O)C1=C(C)NC(=S)NC1c1ccccc1O (stereo not shown) [Compound 4p]
Maximum non-cytotoxic concentration to normal cells [1]: 0.4 mM | HUVEC tube formation (pattern recognition / morphology) (HUVEC cells): more pronounced anti-angiogenic morphological aspect | Inhibition of cell proliferation, MDA-MB-231 (MDA-MB-231 cells): Approximately 50% | Cell cycle effect, MCF-7, 48 h (MCF-7 cells [2]): cell cycle arrest at G2/M | Cell phenotype by DAPI staining and TEM (MCF-7 cells [3]): mitotic catastrophe phenotype | Inhibition of cell proliferation, MCF-7 (MCF-7 cells [4]): Approximately 50% | CD44-/CD24- subpopulation, MCF-7 (mean ± SEM) (MCF-7 cells [5]): 2.83 ± 0.59% | CD44+/CD24+ subpopulation, MCF-7 (mean ± SEM) (MCF-7 cells [5]): 30.40 ± 9.78% | CD44-/CD24+ subpopulation, MCF-7 (mean ± SEM) (MCF-7 cells [5]): 66.42 ± 10.57% | CD44+/CD24- subpopulation, MCF-7 (mean ± SEM) (MCF-7 cells [5]): 0.33 ± 0.20%

CC(=O)C1=C(C)NC(=O)NC1c1ccccc1[N+](=O)[O-] (stereo not shown) [Compound 4x]
Maximum non-cytotoxic concentration to normal cells [1]: 0.8 mM | Cell cycle effect, MCF-7, 48 h (MCF-7 cells [2]): cell cycle arrest at G2/M | CD44-/CD24- subpopulation, MCF-7 (mean ± SEM) (MCF-7 cells [5]): 2.45 ± 0.52% | CD44+/CD24+ subpopulation, MCF-7 (mean ± SEM) (MCF-7 cells [5]): 35.11 ± 19.33% | CD44-/CD24+ subpopulation, MCF-7 (mean ± SEM) (MCF-7 cells [5]): 61.35 ± 20.83% | CD44+/CD24- subpopulation, MCF-7 (mean ± SEM) (MCF-7 cells [5]): 1.065 ± 0.97%
